Data from patent US20150259371A1, “METHODS AND COMPOUNDS FOR INHIBITING GLYCOSYLTRANSFERASES” (SIMON FRASER UNIVERSITY, priority 2010, published 2015).

System: transcription factor Sp1
Experiment: Western blot of Sp1 levels in CHO cells
Assay type: cell-based, Chinese hamster
Conditions: 50 μM, 4 days
Method: (A) Cell proliferation curves over the course of 5 days for CHO cells following no (circles), 50 μM Ac-GlcNAc (squares) or 50 μM Ac-5SGlcNAc (triangles) treatment. The error bars indicate the deviation from the mean for triplicate measurements. […] Upper panel, probed with anti-O-GlcNAc antibody (CTD110.6); lower panel, probed with anti-actin antibody. (B) Cell proliferation curves over the course of 5 days for EMEG heterozygous mouse embryonic fibroblast cells following no (circles), 50 μM Ac-GlcNAc (squares) or 50 μM Ac-5SGlcNAc (triangles) treatment. The error bars indicate the deviation from the mean for triplicate measurements. […] Upper panel, probed with anti-O-GlcNAc antibody (CTD110.6); lower panel, probed with anti-actin antibody. (C) Western blots of CHO cell lysates following no (C) or Ac-5SGlcNAc administration at 50 μM for 4 days. Probed with (from top to bottom) anti-Spl antibody, anti O-GlcNAc (CTD110.6) antibody and anti-actin antibody. Full blot of the anti-Sp 1 is shown in panel (d). […]
Cellular responses to Ac-5SGlcNAc (9) treatment and consequent decreases in O-GlcNAc levels were evaluated. […] We quantitatively evaluated cell proliferation and established growth curves over the course of 5 days in both CHO and EMEG32 heterozygous mouse embryonic fibroblast cells treated with 50 μM Ac-5SGlcNAc (9), 50 μM Ac-GlcNAc (G), or vehicle (FIGS. 5A-B).

CC(=O)NC1C(OC(C)=O)SC(COC(C)=O)C(OC(C)=O)C1OC(C)=O [Compound 9, N-Acetyl-1,3,4,6-tetra-O-acetyl-α-D-5-thio-glucosamine]
Sp1 levels: decreases were observed in the levels of transcription factor Sp1
